Test results as given in patent US12310973B2, “Administration and dosage of diaminophenothiazines” (WisTa Laboratories Ltd., priority 2016, dated 2025).

Test system: mild to moderate AD patients
Test: Phase 3 trial in mild to moderate AD: safety outcomes (adverse events)
Assay type: in vivo, human
Conditions: for Maximum mean change in haemoglobin from baseline: at 6 weeks
Experimental: Patients were monitored throughout for adverse events (AEs) and clinical laboratory testing, physical and neurological examinations and 12-lead electrocardiograms were performed at all clinic visits (screening, baseline and Weeks 2, 6, 13, 26, 39, 52, 65 and 69). Patients were also assessed at all visits for suicidal ideation and intent, and were systematically assessed for signs of serotonin toxicity.

[1] = high dose LMTM (75 or 125 mg b.i.d.)

CN(C)c1ccc2c(c1)Sc1cc(N(C)C)ccc1N2 [LMTM, leuco-methythioninium bis(hydromethanesulfonate)]
Maximum mean change in haemoglobin from baseline (4 mg b.i.d.): -0.01 g/L
AESI: ARIA, % (75 mg b.i.d. (n = 267)): (1.5) %
AESI: Methemoglobinemia, hemolytic anemia, and/or Heinz bodies, % (75 mg b.i.d. (n = 267)): (0) %
AESI: “Serotonin syndrome”, % (75 mg b.i.d. (n = 267)): (0.7) %
Anemia, % of patients (75 mg b.i.d. (n = 267)): (8.2%)
Anemia, number of patients (75 mg b.i.d. (n = 267)): 22
At least one TEAE, % of patients (75 mg b.i.d. (n = 267)): (83.9%)
At least one TEAE, number of patients (75 mg b.i.d. (n = 267)): 224
Blood and lymphatic system disorders, % of patients (75 mg b.i.d. (n = 267)): (10.9%)
Blood and lymphatic system disorders, number of patients (75 mg b.i.d. (n = 267)): 29
Blood folate decreased, % of patients (75 mg b.i.d. (n = 267)): (6.7%)
Blood folate decreased, number of patients (75 mg b.i.d. (n = 267)): 18
Cough, % of patients (75 mg b.i.d. (n = 267)): (5.2%)
Cough, number of patients (75 mg b.i.d. (n = 267)): 14
Deaths, % (75 mg b.i.d. (n = 267)): (1.1) %
Diarrhea, % of patients (75 mg b.i.d. (n = 267)): (23.6%)
Diarrhea, number of patients (75 mg b.i.d. (n = 267)): 63
Dysuria, % of patients (75 mg b.i.d. (n = 267)): (2.6%)
Dysuria, number of patients (75 mg b.i.d. (n = 267)): 7
Gastrointestinal disorders, % of patients (75 mg b.i.d. (n = 267)): (39.3%)
Gastrointestinal disorders, number of patients (75 mg b.i.d. (n = 267)): 105
Infections and infestations, % of patients (75 mg b.i.d. (n = 267)): (31.1%)
Infections and infestations, number of patients (75 mg b.i.d. (n = 267)): 83
Investigations, % of patients (75 mg b.i.d. (n = 267)): (32.6%)
Investigations, number of patients (75 mg b.i.d. (n = 267)): 87
Nausea, % of patients (75 mg b.i.d. (n = 267)): (8.2%)
Nausea, number of patients (75 mg b.i.d. (n = 267)): 22
Other SUSARs, % (75 mg b.i.d. (n = 267)): (0.7) %
Pollakiuria, % of patients (75 mg b.i.d. (n = 267)): (5.6%)
Pollakiuria, number of patients (75 mg b.i.d. (n = 267)): 15
Renal and urinary disorders, % of patients (75 mg b.i.d. (n = 267)): (22.8%)
Renal and urinary disorders, number of patients (75 mg b.i.d. (n = 267)): 61
Respiratory, thoracic and mediastinal disorders, % of patients (75 mg b.i.d. (n = 267)): (12.0%)
Respiratory, thoracic and mediastinal disorders, number of patients (75 mg b.i.d. (n = 267)): 32
Urinary incontinence, % of patients (75 mg b.i.d. (n = 267)): (6.7%)
Urinary incontinence, number of patients (75 mg b.i.d. (n = 267)): 18
Urinary tract infection, % of patients (75 mg b.i.d. (n = 267)): (10.9%)
Urinary tract infection, number of patients (75 mg b.i.d. (n = 267)): 29
Vomiting, % of patients (75 mg b.i.d. (n = 267)): (9.4%)
Vomiting, number of patients (75 mg b.i.d. (n = 267)): 25
Maximum mean change in haemoglobin from baseline (75 mg b.i.d.): -0.47 g/L
AESI: ARIA, % (125 mg b.i.d. (n = 264)): (0.4) %
AESI: Methemoglobinemia, hemolytic anemia, and/or Heinz bodies, % (125 mg b.i.d. (n = 264)): (0.4) %
AESI: “Serotonin syndrome”, % (125 mg b.i.d. (n = 264)): (0) %
Anemia, % of patients (125 mg b.i.d. (n = 264)): (5.7%)
Anemia, number of patients (125 mg b.i.d. (n = 264)): 15
At least one TEAE, % of patients (125 mg b.i.d. (n = 264)): (86.7%)
At least one TEAE, number of patients (125 mg b.i.d. (n = 264)): 229
Blood and lymphatic system disorders, % of patients (125 mg b.i.d. (n = 264)): (9.5%)
Blood and lymphatic system disorders, number of patients (125 mg b.i.d. (n = 264)): 25
Blood folate decreased, % of patients (125 mg b.i.d. (n = 264)): (7.2%)
Blood folate decreased, number of patients (125 mg b.i.d. (n = 264)): 19
Cough, % of patients (125 mg b.i.d. (n = 264)): (4.2%)
Cough, number of patients (125 mg b.i.d. (n = 264)): 11
Deaths, % (125 mg b.i.d. (n = 264)): (1.1) %
Diarrhea, % of patients (125 mg b.i.d. (n = 264)): (25.4%)
Diarrhea, number of patients (125 mg b.i.d. (n = 264)): 67
Dysuria, % of patients (125 mg b.i.d. (n = 264)): (10.2%)
Dysuria, number of patients (125 mg b.i.d. (n = 264)): 27
Gastrointestinal disorders, % of patients (125 mg b.i.d. (n = 264)): (42.0%)
Gastrointestinal disorders, number of patients (125 mg b.i.d. (n = 264)): 111
Infections and infestations, % of patients (125 mg b.i.d. (n = 264)): (28.8%)
Infections and infestations, number of patients (125 mg b.i.d. (n = 264)): 76
Investigations, % of patients (125 mg b.i.d. (n = 264)): (30.3%)
Investigations, number of patients (125 mg b.i.d. (n = 264)): 80
Nausea, % of patients (125 mg b.i.d. (n = 264)): (7.2%)
Nausea, number of patients (125 mg b.i.d. (n = 264)): 19
Other SUSARs, % (125 mg b.i.d. (n = 264)): (1.5) %
Pollakiuria, % of patients (125 mg b.i.d. (n = 264)): (6.8%)
Pollakiuria, number of patients (125 mg b.i.d. (n = 264)): 18
Renal and urinary disorders, % of patients (125 mg b.i.d. (n = 264)): (24.6%)
Renal and urinary disorders, number of patients (125 mg b.i.d. (n = 264)): 65
Respiratory, thoracic and mediastinal disorders, % of patients (125 mg b.i.d. (n = 264)): (8.3%)
Respiratory, thoracic and mediastinal disorders, number of patients (125 mg b.i.d. (n = 264)): 22
Urinary incontinence, % of patients (125 mg b.i.d. (n = 264)): (4.5%)
Urinary incontinence, number of patients (125 mg b.i.d. (n = 264)): 12
Urinary tract infection, % of patients (125 mg b.i.d. (n = 264)): (9.8%)
Urinary tract infection, number of patients (125 mg b.i.d. (n = 264)): 26
Vomiting, % of patients (125 mg b.i.d. (n = 264)): (6.8%)
Vomiting, number of patients (125 mg b.i.d. (n = 264)): 18
Maximum mean change in haemoglobin from baseline (125 mg b.i.d.): -0.93 g/L
Non-fatal SAEs possibly related to treatment (% of the cases, all arms): 14%
Patients with transient responses indicating a wish to be dead (Columbia Suicide Severity Rating Scale) (all arms): 26 patients
Patients with one or more other non-fatal serious adverse events (SAEs) (all arms, evenly distributed between the three treatment groups): 97 patients
Patients who developed ARIA during the study, frequency (all arms, no dose relationship): < 1%
Patients who developed ARIA during the study, total (all arms, no dose relationship): 8 patients
Patients who died during the study (all arms, none related to treatment): 9 patients
Haemolytic anemia cases (all doses): no case of haemolytic anemia
Patients with transient symptoms consistent with serotonergic excess (both treated with LMTM 75 mg b.i.d., no concomitant serotonergic drug): 2 patients
AESI: ARIA, % (control 4 mg b.i.d. (n = 354)): (0.8) %
AESI: Methemoglobinemia, hemolytic anemia, and/or Heinz bodies, % (control 4 mg b.i.d. (n = 354)): (0.3) %
AESI: “Serotonin syndrome”, % (control 4 mg b.i.d. (n = 354)): (0) %
Anemia, % of patients (control 4 mg b.i.d. (n = 354)): (2.8%)
Anemia, number of patients (control 4 mg b.i.d. (n = 354)): 10
At least one TEAE, % of patients (control 4 mg b.i.d. (n = 354)): (83.6%)
At least one TEAE, number of patients (control 4 mg b.i.d. (n = 354)): 296
Blood and lymphatic system disorders, % of patients (control 4 mg b.i.d. (n = 354)): (4.8%)
Blood and lymphatic system disorders, number of patients (control 4 mg b.i.d. (n = 354)): 17
Blood folate decreased, % of patients (control 4 mg b.i.d. (n = 354)): (5.9%)
Blood folate decreased, number of patients (control 4 mg b.i.d. (n = 354)): 21
Cough, % of patients (control 4 mg b.i.d. (n = 354)): (3.4%)
Cough, number of patients (control 4 mg b.i.d. (n = 354)): 12
Deaths, % (control 4 mg b.i.d. (n = 354)): (0.8) %
Diarrhea, % of patients (control 4 mg b.i.d. (n = 354)): (9.3%)
Diarrhea, number of patients (control 4 mg b.i.d. (n = 354)): 33
Dysuria, % of patients (control 4 mg b.i.d. (n = 354)): (0.8%)
Dysuria, number of patients (control 4 mg b.i.d. (n = 354)): 3
Gastrointestinal disorders, % of patients (control 4 mg b.i.d. (n = 354)): (24.6%)
Gastrointestinal disorders, number of patients (control 4 mg b.i.d. (n = 354)): 87
Infections and infestations, % of patients (control 4 mg b.i.d. (n = 354)): (24.9%)
Infections and infestations, number of patients (control 4 mg b.i.d. (n = 354)): 88
Investigations, % of patients (control 4 mg b.i.d. (n = 354)): (22.6%)
Investigations, number of patients (control 4 mg b.i.d. (n = 354)): 80
Nausea, % of patients (control 4 mg b.i.d. (n = 354)): (4.0%)
Nausea, number of patients (control 4 mg b.i.d. (n = 354)): 14
Other SUSARs, % (control 4 mg b.i.d. (n = 354)): (0.6) %
Pollakiuria, % of patients (control 4 mg b.i.d. (n = 354)): (1.7%)
Pollakiuria, number of patients (control 4 mg b.i.d. (n = 354)): 6
Renal and urinary disorders, % of patients (control 4 mg b.i.d. (n = 354)): (8.2%)
Renal and urinary disorders, number of patients (control 4 mg b.i.d. (n = 354)): 29
Respiratory, thoracic and mediastinal disorders, % of patients (control 4 mg b.i.d. (n = 354)): (7.9%)
Respiratory, thoracic and mediastinal disorders, number of patients (control 4 mg b.i.d. (n = 354)): 28
Urinary incontinence, % of patients (control 4 mg b.i.d. (n = 354)): (2.5%)
Urinary incontinence, number of patients (control 4 mg b.i.d. (n = 354)): 9
Urinary tract infection, % of patients (control 4 mg b.i.d. (n = 354)): (8.2%)
Urinary tract infection, number of patients (control 4 mg b.i.d. (n = 354)): 29
Vomiting, % of patients (control 4 mg b.i.d. (n = 354)): (0.6%)
Vomiting, number of patients (control 4 mg b.i.d. (n = 354)): 2
Patients with anaemia-related adverse event terms (grouped) (control (4 mg b.i.d.)): 16%
Convulsion (SAE possibly related to treatment), cases (control arm (4 mg b.i.d.)): 4
Patients discontinuing for gastrointestinal or urinary adverse events (control patients (4 mg b.i.d.)): 1-2%
Patients with anaemia-related adverse event terms (grouped) (high dose LMTM): 22%
Patients discontinuing for gastrointestinal adverse events [1]: 9%
Patients discontinuing for urinary tract adverse events [1]: 3%
Incidence of gastrointestinal adverse events with co-medication (patients also receiving acetylcholinesterase inhibitors (data not shown)): about two-fold higher
